According to ChEMBL document CHEMBL5625249, “Optimization and antifungal activity of quinoline derivatives linked to chalcone moiety combined with FLC against Candida albicans” (Eur J Med Chem, 2023):
Calls of active or inactive are those of the source.

Legend:
[1] = Toxicity in Balb/c mouse assessed as death at 15 mg/kg, ig measured daily for 6 days; type: organism-based; details: in vivo, po, 144 h, time 6 day
Candida albicans [2] = experiment: In vivo antifungal activity against FLC-resistant Candida albicans ATCC 14053 infected in Balb/c mouse assessed as restoration of kidney morphology at 7.5 to 15 mg/kg, ig measured after 6 days in presence of fluconazole by H and E staining based histopathological analysis; type: functional, organism-based; details: dose 7.5-15 mg/kg, time 6.0 day
Candida albicans [3] = experiment: In vivo antifungal activity against FLC-resistant Candida albicans ATCC 14053 infected in Balb/c mouse assessed as reduction in liver fungal load at 15 mg/kg, ig measured after 6 days; type: functional, organism-based; details: time 6.0 day
Candida albicans [4] = experiment: Synergistic antifungal activity against clinical FLC-resistant Candida albicans 808 measured after 24 hrs by microdilution method; type: functional
Candida albicans [5] = experiment: Synergistic antifungal activity against FLC-resistant Candida albicans ATCC 14053 assessed as inhibition of hyphal formation by measuring down regulation of ALS3 gene expression at 1 ug/ml measured after 16 to 18 hrs in presence of fluconazole by qRT-PCR analysis; type: functional, organism-based; details: dose 1.0 µg/ml, time 16-18 hrs
Candida albicans [6] = experiment: Synergistic antifungal activity against clinical FLC-resistant Candida albicans 3511 assessed as fractional inhibitory concentration index measured after 24 hrs by microdilution method; type: functional
Candida albicans [7] = experiment: Induction of reactive oxygen species production in FLC-resistant Candida albicans ATCC 14053 at 1 ug/mL measured after 16 to 18 hrs in presence of fluconazole by DCFH-DA staining based fluorescence assay; type: functional, organism-based; details: dose 1.0 µg/ml, time 16-18 hrs
Candida albicans [8] = experiment: Synergistic antifungal activity against FLC-resistant Candida albicans ATCC 14053 cultured in spider medium assessed as inhibition of hyphal formation at 1 ug/ml measured after 2 hrs in presence of fluconazole by inverted microscopy; type: functional, organism-based; details: dose 1.0 µg/ml
Candida albicans [9] = experiment: Antifungal activity against clinical FLC-resistant Candida albicans 187 measured after 24 hrs by microdilution method; type: functional
Candida albicans [10] = experiment: Synergistic antifungal activity against clinical FLC-resistant Candida albicans 550 assessed as fractional inhibitory concentration index measured after 24 hrs by microdilution method; type: functional
Candida albicans [11] = experiment: Synergistic antifungal activity against FLC-resistant Candida albicans ATCC 14053 assessed as inhibition of hyphal formation by measuring down regulation of CYR1 gene expression at 1 ug/ml measured after 16 to 18 hrs in presence of fluconazole by qRT-PCR analysis; type: functional, organism-based; details: dose 1.0 µg/ml, time 16-18 hrs
Candida albicans [12] = experiment: Synergistic antifungal activity against FLC-resistant Candida albicans ATCC 14053 cultured in spider medium assessed as inhibition of hyphal formation at 1 ug/ml measured after 4 to 8 hrs in presence of fluconazole by inverted microscopy; type: functional, organism-based; details: dose 1.0 µg/ml, time 4-8 hrs
Candida albicans [13] = experiment: Synergistic antifungal activity against clinical FLC-resistant Candida albicans 4508 assessed as fractional inhibitory concentration index measured after 24 hrs by microdilution method; type: functional
Candida albicans [14] = experiment: Synergistic antifungal activity against clinical FLC-resistant Candida albicans 381 assessed as fractional inhibitory concentration index measured after 24 hrs by microdilution method; type: functional
Candida albicans [15] = experiment: Synergistic antifungal activity against clinical FLC-resistant Candida albicans 800 assessed as fractional inhibitory concentration index measured after 24 hrs by microdilution method; type: functional
Candida albicans [16] = experiment: Synergistic antifungal activity against FLC-resistant Candida albicans ATCC 14053 cultured in SD +10% FBS liquid medium assessed as inhibition of hyphal formation at 1 ug/ml measured after 2 hrs in presence of fluconazole by inverted microscopy; type: functional, organism-based; details: dose 1.0 µg/ml
Candida albicans [17] = experiment: In vivo antifungal activity against FLC-resistant Candida albicans ATCC 14053 infected in Balb/c mouse assessed as restoration of normal lung morphology at 15 mg/kg, ig measured after 6 days by H and E staining based histopathological analysis; type: functional, organism-based; details: time 6.0 day
Candida albicans [18] = experiment: In vivo antifungal activity against FLC-resistant Candida albicans ATCC 14053 infected in Balb/c mouse assessed as increase in organ coefficients of spleen at 7.5 to 15 mg/kg, ig measured after 6 days in presence of fluconazole; type: functional, organism-based; details: dose 7.5-15 mg/kg, time 6.0 day
[19] = Toxicity in Balb/c mouse assessed as death at 7.5 to 15 mg/kg, ig measured daily for 6 days in presence of fluconazole; type: organism-based; details: in vivo, po, 144 h, dose 7.5-15 mg/kg, time 6 day
Candida albicans [20] = experiment: Synergistic antifungal activity against Clinical FLC-resistant Candida albicans 23 measured after 24 hrs in presence of fluconazole by microdilution method; type: functional
Candida albicans [21] = experiment: Synergistic antifungal activity against FLC-resistant Candida albicans ATCC 14053 assessed as fractional inhibitory concentration index measured after 24 hrs by microdilution method; type: functional
Candida albicans [22] = experiment: Synergistic antifungal activity against clinical FLC-resistant Candida albicans 799 assessed as fractional inhibitory concentration index measured after 24 hrs by microdilution method; type: functional
Candida albicans [23] = experiment: Synergistic antifungal activity against FLC-resistant Candida albicans ATCC 10231 assessed as fractional inhibitory concentration index measured after 24 hrs by microdilution method; type: functional
Candida albicans [24] = experiment: Synergistic antifungal activity against FLC-resistant Candida albicans ATCC 14053 assessed as inhibition of hyphal formation by measuring down regulation of ECE1 gene expression at 1 ug/ml measured after 16 to 18 hrs in presence of fluconazole by qRT-PCR analysis; type: functional, organism-based; details: dose 1.0 µg/ml, time 16-18 hrs
Candida albicans [25] = experiment: In vivo antifungal activity against FLC-resistant Candida albicans ATCC 14053 infected in Balb/c mouse assessed as increase in organ coefficients of thymus at 7.5 to 15 mg/kg, ig measured after 6 days in presence of fluconazole; type: functional, organism-based; details: dose 7.5-15 mg/kg, time 6.0 day
Candida albicans [26] = experiment: Antifungal activity against FLC-resistant Candida albicans ATCC 14053 cultured in SD +10% FBS liquid medium assessed as inhibition of hyphal formation at 1 ug/ml measured after 2 hrs by inverted microscopy; type: functional, organism-based; details: dose 1.0 µg/ml
Candida albicans [27] = experiment: In vivo antifungal activity against FLC-resistant Candida albicans ATCC 14053 infected in Balb/c mouse assessed as reduction in lung fungal load at 7.5 to 15 mg/kg, ig measured after 6 days in presence of fluconazole; type: functional, organism-based; details: dose 7.5-15 mg/kg, time 6.0 day
Candida albicans [28] = experiment: Synergistic antifungal activity against FLC-resistant Candida albicans ATCC 14053 cultured in SD +10% FBS liquid medium assessed as inhibition of hyphal formation at 1 ug/ml measured after 4 to 8 hrs in presence of fluconazole by inverted microscopy; type: functional, organism-based; details: dose 1.0 µg/ml, time 4-8 hrs
Candida albicans [29] = experiment: In vivo antifungal activity against FLC-resistant Candida albicans ATCC 14053 infected in Balb/c mouse assessed as reduction in severity of lesions in kidney at 15 mg/kg, ig measured after 6 days by H and E staining based histopathological analysis; type: functional, organism-based; details: time 6.0 day
Candida albicans [30] = experiment: Antifungal activity against clinical FLC-resistant Candida albicans 4574 measured after 24 hrs by microdilution method; type: functional
Candida albicans [31] = experiment: Antifungal activity against FLC-sensitive Candida albicans SC5314 measured after 24 hrs by microdilution method; type: functional
Candida albicans [32] = experiment: Antifungal activity against clinical FLC-resistant Candida albicans 550 measured after 24 hrs by microdilution method; type: functional
Candida albicans [33] = experiment: Synergistic antifungal activity against FLC-resistant Candida albicans ATCC 14053 cultured in SD +10% FBS liquid medium assessed as inhibition of hyphal formation at 1 ug/ml measured after 4 to 8 hrs in presence of fluconazole and dibutyryl-cAMP by inverted microscopy; type: functional, organism-based; details: dose 1.0 µg/ml, time 4-8 hrs
Candida albicans [34] = experiment: Antifungal activity against clinical FLC-resistant Candida albicans 800 measured after 24 hrs by microdilution method; type: functional

CN1CCN(c2nc3ccccc3cc2/C=C/C(=O)c2ccc(N3CCN(Cc4ccc(C(F)(F)F)cc4)CC3)cc2)CC1
Non-Toxic: Activity [1] | Activity [19]
> 40 µg/mL: MIC80 (Candida albicans [9]) | MIC80 (Candida albicans [30]) | MIC80 (Candida albicans [32]) | MIC80 (Candida albicans [34])
0.03: fractional inhibitory concentration index (FICI) (Candida albicans [13]) | fractional inhibitory concentration index (FICI) (Candida albicans [14]) | fractional inhibitory concentration index (FICI) (Candida albicans [15]) | fractional inhibitory concentration index (FICI) (Candida albicans [22])
0.14: fractional inhibitory concentration index (FICI) (Candida albicans [23])
0.15: fractional inhibitory concentration index (FICI) (Candida albicans [6]) | fractional inhibitory concentration index (FICI) (Candida albicans [10])
inactive: Activity (Candida albicans [3]) | inhibition (Candida albicans [8]) | inhibition (Candida albicans [16]) | Activity (Candida albicans [17]) | inhibition (Candida albicans [26]) | Activity (Candida albicans [27]) | Activity (Candida albicans [29]) | inhibition (Candida albicans [33])
1.2 µg/mL: MIC80 (Candida albicans [20])
active: Activity (Candida albicans [2]) | inhibition (Candida albicans [5]) | Activity (Candida albicans [7]) | inhibition (Candida albicans [11]) | inhibition (Candida albicans [12]) | Activity (Candida albicans [18]) | inhibition (Candida albicans [24]) | Activity (Candida albicans [25]) | inhibition (Candida albicans [28])
0.02: fractional inhibitory concentration index (FICI) (Candida albicans [21])
0.38 µg/mL: MIC80 (Candida albicans [4])
27.8 µg/mL: MIC80 (Candida albicans [31])
